Reference: patent US20040033944A1, “Method of treating erectile dysfunction” (priority 1999, published 2004)
Where two headings read alike, the source gives them in different places.

Tests used:
corporal smooth muscle = conditions: for Acetylcholine ED50 (−Log (M)) / Sodium Nitroprusside ED50 (−Log (M)): 10 days after injection, mean SEM
Description: (§1) Animals: Male New Zealand White rabbits weighing 2.5-3 kg were fed either a normal rabbit diet (n=12) or a 1% cholesterol diet (n=12) (Harland Teklab, Madison, Wis.) for a total of 7.5 weeks. […] Ten days after the injection, the rabbits were euthanized and underwent penectomy with meticulous dissection of the corpora cavernosa from the tunica albuginia. Total serum cholesterol was determined using the enzymatic method prior to the initiation of the experimental diet and on serum samples drawn immediately prior to the procedure. Animal care and handling complied with published Guidelines (Institute of Laboratory Animal Resources, Commission on Life Sciences, National Research Council. Guide for the Care and Use of Laboraiton Animals. Washington: National Academy Press (1996)).
Isometric tension studies. Two corporal strips from each animal were suspended in 5 ml capacity organ baths containing Krebs physiological salt solution (122 mmol/liter NaCl. 4.7 mmol/liter KCl, 1.2 mmol/liter MgCl2, 2.5 mmol/liter CaCl2, 15.4 mmol/liter NaHCO3, 1.2 mmol/liter KH2PO4, and 5.5 mmol/liter glucose) maintained at 37° C. and oxygenated with 95% O2 and 5% CO2. Strips were attached to an adjustable force transducer and isometric responses were recorded on a multi-channel polygraph (Myograph F-60; Physiograph MK111-S; Narco Bio-Systems, Houston, Tex.). […] All subsequent testing was then performed at the optimal resting tension for each strip. Strips were sub-maximally pre-contracted with 10^−5 M norepinephrine, and after a contractile plateau was reached, acetylcholine (10^−8 to 10^−3 M) or sodium nitroprusside (10^−8 to 10^−4 M) was added cumulatively in logarithmic increments. Relaxation in response to each agent is expressed as a percentage of the active tension generated by the 10^−5 M dose of norepinephrine and converted to percentage of maximal response at each dose. These values were plotted against the negative logarithm of the agonist dose to produce relaxation dose-response curves. Logistic regression analysis with logit transformation was performed on the cumulative dose response curves from each treatment group to determine the ED25. ED50 and ED75 for each agent (Finney, Statistical Method in Biological Assay (3 ed.). London: Charles Griffin and Company LTD, p. 349-369 (1978), Kim et al, J Urol 151:198-205 (1994)).
(§2) Statistical evaluation. Each treatment group contained 6 animals (corporal strip n=12). Data are expressed as the mean±standard error of the mean (SEM). The responses of strips from each treatment group to acetylcholine or sodium nitroprusside were compared using the independent samples T-Test. […] The ED50 (sensitivity) and the maximal response were the principal outcomes assessed for each agent, and adjusting for multiple comparisons each outcome was assessed at the 0.025 level. Secondary outcomes, including cholesterol level, and the ED25 and the ED75 for each agent were tested at the 0.05 level without adjustment for multiple comparisons.
(§3) The route of administration can affect the efficacy of treatments for erectile dysfunction, as is seen in the difference between intrauretheral and intracavernosal alprostadil. […] Ten days after injection isometric tension studies were performed on corporal tissue. Sensitivity and maximal relaxation to acetylcholine (ACH) and sodium nitroprusside (SNP) were compared between treatment groups.
(§4) Ten days after injection, their corpora cavernosa were harvested, and isometric tension studies were performed. Relaxation to acetylcholine (ACH) and sodium nitroprusside (SNP) was compared within each group.
Animals: 36 New Zealand White rabbits were fed either a normal rabbit diet (n=12) or a 1% cholesterol diet (n=24) (Harland Teklab, Madison, Wis.) for a total of 7.5 weeks.

adult rabbit penis = conditions: intracavernosal injections of VEGF
[1] = test system: trabecular smooth muscle content of corporal tissue; conditions: cholesterol-fed rabbits
Description: as §1
as §2, with “Secondary outcomes, including cholesterol level, and the ED25 and the ED75 for each agent were tested at the 0.05 level without adjustment for multiple comparisons.” left out

[2] = test system: corpora cavernosa smooth muscle; conditions: hypercholesterolemic rabbits, three weekly intracavernosal injections of VEGF
Description: Fifteen male New Zealand White rabbits weighing 2 to 2.5 kg were used in a total of two arms in the study. […] Random serum total cholesterol levels were measured at the beginning of the study and after four weeks of the 1% cholesterol diet. At the end of four weeks, each rabbit underwent total penectomy and then was sacrificed. Each penis yielded two strips of tissue with a small amount of erectile tissue being placed in neutral buffered formalin 10%. The strips were suspended in tissue baths, and isometric tension studies were performed. Dose-response curves for norepinephrine were generated first in each strip to assess adrenergic-mediated cavernosal smooth muscle contraction. Next, dose-response curves for histamine were generated to assess histamine receptor mediated contraction of cavernosal smooth muscle. Submaximal contraction was then produced with 10^−3 concentration of norepinephrine and dose-response curves were then generated to evaluate endothelial-dependent (acetylcholine) smooth muscle relaxation. Once again, a submaximal contraction was produced using 10^−5 concentration of norepinephrine and dose response curves were then generated to evaluate endothelial-independent (sodium nitroprusside) smooth muscle relaxation.
Tissue. Cavernosal tissue procurement was performed under general anesthesia induced with Ketamine 50 mg/kg SC (Ketaset, Bristol Laboratories, Syracuse, N.Y.) and Xylazine 30 mg/kg SC (Rompun, Mobay Corp., Shawnee, Kans.). The penis was excised en bloc and placed in warm Krebs solution, where the corpora cavernosa were sharply dissected from the tunica albuginea producing a strip (approximately 0.3×0.3×0.7 cm.) from each corpus. The strips were then mounted in the oxygen tissue baths. After tissue collection, the rabbits were euthanized with an overdose of intravenous sodium pentobarbitol (100 mg/kg to effect). Care was taken throughout the procedure to minimize tissue manipulation.
Tissue Chambers. Each cavernosal strip was placed in a 25 ml tissue bath (Kent Scientific Corp.. Litchfield, Conn.). One end was hooked to a tissue holder and the other end w as hooked to a force transducer (FTO3, Grass Instruments, Quincy, Mass.) for determination of isometric tension. The bath was filled with a modified Kreb's physiologic salt solution with the following millimolar composition: NaCl 122, KCl 4.7, MgCl2 1.2, CaCl2 2.5, NaHCO3 15.4, KH2PO4 1.2. and glucose 5.5. A circulating water bath kept tissue chamber temperatures at 37C. Continuous aeration with 95% oxygen and 5% carbon dioxide maintained a pH of 7.4.
Optimal isometric tension determination. Each of the force transducers was connected to a transducer positioner enabling preload tension adjustment. Following suspension in the tissue chambers, the tension was periodically adjusted (at least every fifteen minutes) until the strip equilibrated at 0.5 gm. […] The optimal preload tension was then determined by contracting the tissue with 60 mM KCl Krebs solution (prepared by substituting 60 mM of sodium with equimolar amounts of potassium in Krebs-PSS solution) at increasing levels of preload (0.5 gm. increments). […] All subsequent testing was then performed at the determined optimal resting tension for each strip: Monitoring of tension was done with a four-channel polygraph (Grass 7D, Grass Instruments).
Isometric tension studies. The tissue was washed with Kreb's solution every fifteen minutes after each study until the tissue returned to baseline (at least one hour). Dose response curves for norepinephrine were obtained by cumulative addition of norepinephrine (10^−9 to 10^−4) in logarithmic increments.

VEGF in corporal tissue = test system: VEGF in corporal tissue
Description: Animals: 36 New Zealand White rabbits were fed either a normal rabbit diet (n=12) or a 1% cholesterol diet (n=24) (Harland Teklab, Madison, Wis.) for a total of 7.5 weeks. […] Ten days after the injection, the rabbits were euthanized and underwent penectomy with meticulous dissection of the corpora cavernosa from the tunica albuginia. Total serum cholesterol was determined prior to the initiation of the experimental diet and immediately prior to the procedure.
Frozen corporal tissues were sonicated in 50 mM Tris radioimmunoprecipation assay buffer for 1 minute for protein isolation. […] The samples were quantified with a Molecular Devices Kinetic microplate reader using Apple SoftMax software. One ELISA was performed for each animal in each treatment group.
Statistical evaluation. Data are expressed as the mean standard error of the mean (SEM). […] Statistical significance was determined at the 0.05 level.

[3] = test system: VEGF protein expression in corporal tissue; conditions: for VEGF immunoexpression: IC VEGF 0.9 mg, mean±SEM
Description: as §1, §2, §3, §4

[4] = cholesterol-fed rabbits, IV VEGF 0.9 mg vs vehicle
[5] = cholesterol-fed rabbits, intracavernosal 0.9 mg VEGF at week 6, 10 days after injection, mean±SEM
[6] = cholesterol-fed rabbits, single intravenous bolus VEGF 0.9 mg vs vehicle

Substance: VEGF
- Acetylcholine ED50 (−Log (M)) (corporal smooth muscle; Cholesterol / IC VEGF 0.9 mg): 4.94 0.25 −Log (M)
- Sodium Nitroprusside ED50 (−Log (M)) (corporal smooth muscle; Cholesterol / IC VEGF 0.9 mg): 6.36 0.16 −Log (M)
- Acetylcholine ED50 (−Log (M)) (corporal smooth muscle; Cholesterol / IV VEGF 0.9 mg): 6.33 0.40 −Log (M)
- Sodium Nitroprusside ED50 (−Log (M)) (corporal smooth muscle; Cholesterol / IV VEGF 0.9 mg): 6.93 0.25 −Log (M)
- endothelium-dependent (acetylcholine) smooth muscle relaxation, effect of VEGF treatment (corporal smooth muscle; cholesterol-fed rabbits, IC VEGF 0.9 mg vs vehicle): not affected
- SNP-mediated, direct smooth muscle relaxation, effect of IV VEGF treatment (corporal smooth muscle; [4]): significantly improved
- endothelium-dependent smooth muscle relaxation, effect of IV VEGF treatment (corporal smooth muscle; [4]): augmented
- maximal relaxation to acetylcholine (corporal smooth muscle; [5]): 78.6±6.2 grams
- maximal relaxation to sodium nitroprusside (corporal smooth muscle; [5]): 113.9±6.3 grams
- sensitivity (ED50) to acetylcholine relaxation (corporal smooth muscle; [5]): 4.94±0.25 (−Log)(M)
- sensitivity to sodium nitroprusside relaxation at ED50 (corporal smooth muscle; [5]): 6.36±0.16 (−Log)(M)
- sodium nitroprusside relaxation ED75 (corporal smooth muscle; [5]): 5.75±0.16 (−Log)(M)
- endothelium dependent (ACH-mediated) maximal corporal smooth muscle relaxation, effect of VEGF (corporal smooth muscle; [6]): significantly augmented
- endothelium independent (SNP-mediated) maximal corporal smooth muscle relaxation, effect of VEGF (corporal smooth muscle; [6]): significantly augmented
- sensitivity (ED50) to ACH, effect of VEGF (corporal smooth muscle; [6]): enhanced
- sensitivity (ED50) to SNP, effect of VEGF (corporal smooth muscle; [6]): enhanced
- tumescence (adult rabbit penis): approximately 80%
- smooth muscle content, effect of VEGF treatment ([1]; IC VEGF 0.9 mg vs vehicle): not affected
- trabecular smooth muscle content ([1]; IC VEGF 0.9 mg, relative to normal diet, vehicle-treated = 1.0, mean±SEM): 0.82±0.016 arbitrary units
- Acetylcholine Percent Maximal Relaxation [2]: 94.5±8.41%
- Sensitivity to Acetylcholine ED25 [2]: −5.48 ± 0.33
- Sensitivity to Acetylcholine ED75 [2]: −3.50 ± 0.41
- Sensitivity to Sodium Nitroprusside ED75 [2]: −5.52 ± 0.18
- Sodium Nitroprusside Percent Maximal Relaxation [2]: 145 ± 8.26%
- VEGF ELISA optical density (OD) minus background (VEGF in corporal tissue; cholesterol-fed animals treated with VEGF (IC)): 0.168
- VEGF ELISA optical density (OD) (VEGF in corporal tissue; cholesterol-fed animals, IV VEGF administration): 0.128
- VEGF immunoexpression ([3]; cholesterol-fed animals): 19.67±1.38 arbitrary units
- VEGF protein immunoexpression, effect of IV VEGF ([3]; cholesterol-fed animals, IV VEGF 0.9 mg vs vehicle): augmented
- VEGF immunoexpression ([3]; normal diet animals): 37.6±1.12 arbitrary units
- VEGF expression, effect of VEGF therapy ([3]; single intracavernosal VEGF 0.9 mg vs vehicle): augmented
